Source: US5536749A, “Method for attenuation of sympathetic nervous system activity or onset of migraine by selectively metabolized beta-blocking agents” (SL Pharmaceuticals, Inc., priority 1994, dated 1996)

Tested on: isoproterenolinduced tachycardia
Test: beta-blocking action (potency, onset and duration) in anesthetized dogs after sublingual administration
Format: in vivo, dog
Method: The procedure described by J. E. Shaffer et al. in Drug Development Research 1, 221-232 (1986) was used to assess the potency, onset and duration of beta-blocking action of the compounds of Formula I in anesthetized dogs, except that compositions of Formula I were administered sublingually to the dog instead of by intravenous infusion. Using this method the results shown below were obtained with representative compounds A and B.
^1 Defined as the time from sublingual dosing to the first detectable
decrease in heart rate.
^2 Defined as the percent of reduction in isoproterenolinduced
^3 Defined as the times from sublingual dosing to the peak blockade o
isoproterenol observed. (Isoproterenol dose every ten minuets.)
^4 Defined as the time from peak blockade to the decay of blockade by […]

SMILES: COC(=O)CCc1ccccc1OCC(O)CNC(C)C (stereo not drawn) [A]
- Peak Blockade (% Inhibition) (0.16 mpk (mg/kg), first line of Table 1, percent of reduction in isoproterenol-induced tachycardia): 35 ± 6%
- Beta-Blockade Onset (0.16 mpk (mg/kg), first line of Table 1, time from dosing to first detectable decrease in heart rate): 1 to 2 min
- Time to Peak Blockade (0.16 mpk (mg/kg), first line of Table 1, time from dosing to peak blockade of isoproterenol (dosed every ten minutes)): 10 min
- Time to 50% Recovery from Blockade (0.16 mpk (mg/kg), first line of Table 1, time from peak blockade to decay of blockade by 50% of the peak): 38 min
- Peak Blockade (% Inhibition) (0.16 mpk (mg/kg), second line of Table 1, percent of reduction in isoproterenol-induced tachycardia): 39 ± 2%
- Beta-Blockade Onset (0.16 mpk (mg/kg), second line of Table 1, time from dosing to first detectable decrease in heart rate): 3 to 4 min
- Time to Peak Blockade (0.16 mpk (mg/kg), second line of Table 1, time from dosing to peak blockade of isoproterenol (dosed every ten minutes)): 10 min
- Time to 50% Recovery from Blockade (0.16 mpk (mg/kg), second line of Table 1, time from peak blockade to decay of blockade by 50% of the peak): 43 min
- Peak Blockade (% Inhibition) (0.47 mpk (mg/kg), third line of Table 1, percent of reduction in isoproterenol-induced tachycardia): 65 ± 4%
- Beta-Blockade Onset (0.47 mpk (mg/kg), third line of Table 1, time from dosing to first detectable decrease in heart rate): 2 to 3 min
- Time to Peak Blockade (0.47 mpk (mg/kg), third line of Table 1, time from dosing to peak blockade of isoproterenol (dosed every ten minutes)): 10 min
- Time to 50% Recovery from Blockade (0.47 mpk (mg/kg), third line of Table 1, time from peak blockade to decay of blockade by 50% of the peak): 81 min
